Structures are written as SMILES.

Assay [1] concerns the target T1, Peroxisome proliferator-activated receptor alpha (Homo sapiens) (UniProt Q07869).
T1 sequence (whole entry): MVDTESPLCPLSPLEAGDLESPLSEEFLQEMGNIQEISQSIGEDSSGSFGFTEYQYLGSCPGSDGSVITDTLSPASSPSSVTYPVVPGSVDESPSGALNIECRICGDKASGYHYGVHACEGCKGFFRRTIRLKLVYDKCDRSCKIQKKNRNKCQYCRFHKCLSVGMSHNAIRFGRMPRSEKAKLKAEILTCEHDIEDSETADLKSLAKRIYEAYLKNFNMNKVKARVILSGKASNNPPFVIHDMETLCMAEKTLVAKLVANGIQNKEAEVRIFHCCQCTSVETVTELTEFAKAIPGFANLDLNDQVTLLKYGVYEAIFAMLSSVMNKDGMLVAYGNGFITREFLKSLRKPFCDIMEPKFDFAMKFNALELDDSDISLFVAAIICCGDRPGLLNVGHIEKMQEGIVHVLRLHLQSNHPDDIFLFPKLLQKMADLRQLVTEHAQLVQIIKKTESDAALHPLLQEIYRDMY
The assay can be described thus: Binding affinity to PPARalpha (unknown origin) at 10 uM by TR-FRET based LanthaScreen competitive binding assay relative to control. On the technique in general: Time-resolved FRET reads energy transfer from a long-lived donor to a nearby acceptor.

For assay [2], the target named is T2, Peroxisome proliferator-activated receptor gamma (Homo sapiens) (UniProt P37231).
T2 sequence (whole entry): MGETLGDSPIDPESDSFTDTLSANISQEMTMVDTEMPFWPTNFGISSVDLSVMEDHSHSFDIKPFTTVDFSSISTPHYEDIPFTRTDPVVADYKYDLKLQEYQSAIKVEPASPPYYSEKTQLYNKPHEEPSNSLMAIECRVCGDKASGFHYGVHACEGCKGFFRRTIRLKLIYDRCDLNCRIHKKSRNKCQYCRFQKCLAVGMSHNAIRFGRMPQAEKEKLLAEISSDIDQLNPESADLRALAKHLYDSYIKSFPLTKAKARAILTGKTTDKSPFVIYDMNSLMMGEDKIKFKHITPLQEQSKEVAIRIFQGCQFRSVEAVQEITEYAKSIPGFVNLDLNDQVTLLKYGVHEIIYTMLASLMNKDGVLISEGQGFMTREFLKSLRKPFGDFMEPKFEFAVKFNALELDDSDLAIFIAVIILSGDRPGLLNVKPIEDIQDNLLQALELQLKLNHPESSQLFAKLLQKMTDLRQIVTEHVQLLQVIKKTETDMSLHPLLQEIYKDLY
Description: Binding affinity to PPARgamma (unknown origin) at 10 uM by TR-FRET based LanthaScreen competitive binding assay relative to control.

The target of assay [3] is T3, Peroxisome proliferator-activated receptor delta (Homo sapiens) (UniProt Q03181).
T3 sequence (whole entry): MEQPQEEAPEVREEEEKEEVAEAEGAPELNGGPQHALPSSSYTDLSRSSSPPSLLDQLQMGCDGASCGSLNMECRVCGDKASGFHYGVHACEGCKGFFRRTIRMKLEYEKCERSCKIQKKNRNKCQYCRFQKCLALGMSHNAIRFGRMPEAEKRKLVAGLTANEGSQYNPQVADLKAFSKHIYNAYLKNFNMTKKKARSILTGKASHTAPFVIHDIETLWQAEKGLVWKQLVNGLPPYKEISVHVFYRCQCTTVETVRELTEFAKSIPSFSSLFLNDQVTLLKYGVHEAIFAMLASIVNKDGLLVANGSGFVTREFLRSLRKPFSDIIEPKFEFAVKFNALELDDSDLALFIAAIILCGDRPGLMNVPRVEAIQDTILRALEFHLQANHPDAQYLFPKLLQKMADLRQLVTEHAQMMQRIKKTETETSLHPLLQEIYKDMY
Description: Binding affinity to PPARdelta (unknown origin) at 10 uM by TR-FRET based LanthaScreen competitive binding assay relative to control.

Assay [4] has as its system Mesenchymal stem cells. The assay can be described thus: Induction of adipogenesis in human differentiated BMMSC cells assessed as fold increase in adiponectin production at 10 uM measured on 5 day in presence of IDX induction medium by ELISA. The class given is functional. For orientation: In an ELISA, binding on a coated surface is turned into a signal by an enzyme label.

Assay [5] concerns Mesenchymal stem cells. The assay can be described thus: cells. Conditions: Homo sapiens, 120 h.
Description: Induction of adipogenesis in human differentiated BMMSC cells assessed as increase in adiponectin secretion and measured on 5 day in presence of IDX induction medium by ELISA
For assay [6], the target named is T4, Peroxisome proliferator-activated receptor delta (Homo sapiens, UniProt Q03181).
T4 sequence (Q03181 whole entry): T3 sequence (whole entry)
Description: Binding affinity to PPARdelta (unknown origin) by TR-FRET based LanthaScreen competitive binding assay

`O[C@H]1[C@@H](O)CO[C@@H]1Cn1cnc2c(NCc3cccc(F)c3)ncnc21`: the Activity in assay [1] turned out to be 7.6%; in assay [2] it was 11.5%; in assay [3], 8%.
As for `CCc1ccc(CCOc2ccc(CC3SC(=O)NC3=O)cc2)nc1` (stereo unspecified) [PIOGLITAZONE], the “fold change (FC)” value in the assay on Mesenchymal stem cells [4] is listed as 7.8. In the assay on Mesenchymal stem cells [5], this compound showed an EC50 of 0.9 µM.
Take `COc1ccc(Cl)cc1C(=O)NCCc1ccc(S(=O)(=O)NC(=O)NC2CCCCC2)cc1` [GLYBURIDE]: in the assay on Mesenchymal stem cells [4], the “fold change (FC)” value is reported as 6.2.
As for `O[C@H]1[C@@H](O)CO[C@@H]1Cn1cnc2c(NCc3cccc(I)c3)ncnc21`, the Activity amounted to 13.2% in assay [1], 3.9% in assay [2] and 16.3% in assay [3].
For `O[C@H]1[C@@H](O)CO[C@@H]1Cn1cnc2c(NCc3cccc(F)c3)nc(Cl)nc21`, the Activity in assay [1] was determined as 14.5%; in assay [2], 6.3%; in assay [3], 29.5%.
With `O[C@@H]1[C@H](O)CO[C@H]1Cn1cnc2c(NCc3cccc(I)c3)nc(Cl)nc21`, the Activity in assay [1] was 3.9%.
On to `O[C@H]1[C@@H](O)CO[C@@H]1Cn1cnc2c(NCc3cccc(Cl)c3)ncnc21`, for which the results for the Activity in assay [1], in assay [2] and in assay [3] were 3.1%, 5.9% and 21.5%, respectively.
Turning to `O[C@H]1[C@@H](O)CO[C@@H]1Cn1cnc2c(NCc3cccc(Br)c3)nc(Cl)nc21`, the Activity in assay [1] came to 8.7%; in assay [2], 25.5%. This compound also gave a Ki in assay [6] of 3.4 µM.
`O[C@H]1[C@@H](O)CO[C@@H]1Cn1cnc2c(NCc3cccc(I)c3)nc(Cl)nc21`: the Activity in assay [1] turned out to be 17.2%.
Regarding `O[C@H]1[C@@H](O)CO[C@@H]1Cn1cnc2c(NCc3cccc(Br)c3)ncnc21`, the Activity in assay [1] worked out at 3.8%; in assay [2] it was 12.5%; in assay [3], 1.2%.
In the case of `O[C@H]1[C@@H](O)CO[C@@H]1Cn1cnc2c(NCc3cccc(Cl)c3)nc(Cl)nc21`, the Activity in assay [1] was found to be 19.1%; in assay [2] it was 10.7%; in assay [3] (filed as antagonist), 46.3%.

The term EC50 denotes the concentration that produces a half-maximal response. A high value points to weaker potency. Usually Ki stands for the equilibrium dissociation constant of an inhibitor or competing ligand from its target.

The record behind these values is ChEMBL document CHEMBL5120937, “Design, Synthesis, and Biological Activity of l-1'-Homologated Adenosine Derivatives” (ACS Med Chem Lett, 2022).
